# Measured values as given in US11529319B2, “Methods and compositions for treating neurological conditions” (priority 2017, dated 2022).
# Entries after “also recorded” stand apart in the source; their conditions may differ.
# How the values were obtained:
# [1] = system: Mef2c-het mice; assay: Hole-board exploration test; assay type: in vivo, mouse; details: chronic treatment
# Source text: Mef2c heterozygous knockout (Mef2c-het) mice were created by crossing mice carrying the conventional exon 2-deleted allele of Mef2c (Mef2c^Δ2) with their WT littermates. All procedures for maintaining and using these mice were approved by the Institutional Animal Care and Use Committee (IACUC) at the Sanford Burnham Prebys Medical Discovery Institute. In this study, only male mice were used for the behavioral assays to insure uniformity (either with or without drug treatment). Chronic treatment with memantine, NitroSynapsin (both at 4.6 μmol/kg body weight) or vehicle (PBS) was administered via i.p. injection, twice a day for at least 3 months, starting at ˜2.5 weeks of age. This age was chosen because mice are still juveniles and thus treatment could begin in human at an equivalent stage.
# The apparatus consisted of a Plexiglas cage (32×32×30 cm) with 16 holes in a format of 4×4 (each 3 cm in diameter) equally spaced on an elevated floor. The explorative activity including the number of head-dips and the time spent head-dipping were measured for 5 min.
# [2] = system: p38 MAPK/MAPKAPK2/TSC2/mTORC1/S6K1 cascade; assay: Western blots of eNMDAR-triggered signaling; assay type: cell-based; details: compared with Memantine
# Source text: This experiment was replicated 4 times with similar results and quantified in FIG. 20C.
# [3] = system: hippocampal slices of Tsc2+/- mice; assay: CA1 LTP in acute hippocampal slices by multielectrode array; assay type: cell-based, mouse; details: 1-2 μM, 4-hour treatment; monitored 55-65 min after induction; vs vehicle
# Description: Long-term potentiation (LTP), a form of synaptic plasticity elicited in response to excitatory input and thought to represent an electrical correlate of learning and memory in the hippocampus, was examined. Field recordings in the CA1 region of hippocampal slices were used to investigate the effects of Tsc2 mutation on this form of synaptic plasticity. For this purpose, acute hippocampal slices from one-month-old mice were prepared and field recordings in a microelectrode array (MEA) chamber perfused with artificial cerebrospinal fluid (ACSF) were performed. fEPSPs (field excitatory postsynaptic potentials) were recorded in the CA1 region after evoking LTP via stimulation of the Schaffer collaterals (four repetitions of 100 Hz pulses for one second each). The initial slope of the fEPSP was analyzed to assess LTP. However, with a stronger induction protocol as used here, we observed a decrease in LTP, monitored 60 min after induction.
smiles,measurement,setting,value
CCC12CC3(N)CC(CC)(C1)CC(O[N+](=O)[O-])(C3)C2 [NitroSynapsin],head-dips per hole (repetitive behavior),[1],corrected the abnormal repetitive behavior
same,eNMDAR-triggered signaling that inactivates TSC2 (p38 MAPK-TSC-Rheb-mTORC1-S6K1 pathway),[2],correction of activity
same,eNMDAR-triggered signaling that inactivates TSC2 (p38 MAPK-TSC-Rheb-mTORC1-S6K1 pathway),[2]; listed as NitroMemantine,to a greater degree than Memantine
same,CA1 LTP in Tsc2+/- hippocampal slices,[3],all improved; also recorded: improved LTP; also recorded: able to reverse deficits in synaptic plasticity; also recorded: improvement of LTP
